Data on three molecules can be found in article PMC8130605 (RSC Medicinal Chemistry, 2021).

A short description of data set [1]: Mouse pharmacokinetic study. In kind it is in vivo. Particulars: after oral dosing 50 mg kg^−1.
In a further data set the test system is THP1 cells. Put plainly: THP1 host cell cytotoxicity. In kind it is cell-based.

For `COc1ccn2c(Nc3cc(F)cc(F)c3)c(-c3ccccn3)nc2c1` [Compound 23], the “compound in the plasma after 24 hours” value in data set [1] is on record as “no compound observed”.

As for `CC(C)(C)Nc1c(-c2ccccn2)nc2c(OCc3ccccc3)cccn12` [Compound 2], the “background cell cytotoxicity (in words)” value with THP1 cells is given as “no background cell cytotoxicity”.

As to `Cc1ccc2nc(-c3ccc(N(C)C)cc3)c(NC3CCCCC3)n2c1` [Compound 8], the “background cell cytotoxicity (in words)” value in the data set on THP1 cells was “no background cell cytotoxicity”.
